Experimental findings from PMC12087874, “Biaryl Phosphates and Phosphonates as Selective Inhibitors of the Transcription Factor STAT4” (Angewandte Chemie (International Ed. in English), 2025) are described below.

Molecules are shown by their SMILES.

For one experiment, the target named is T1, STAT5b (Homo sapiens, UniProt P51692).
T1 sequence (P51692 1-787): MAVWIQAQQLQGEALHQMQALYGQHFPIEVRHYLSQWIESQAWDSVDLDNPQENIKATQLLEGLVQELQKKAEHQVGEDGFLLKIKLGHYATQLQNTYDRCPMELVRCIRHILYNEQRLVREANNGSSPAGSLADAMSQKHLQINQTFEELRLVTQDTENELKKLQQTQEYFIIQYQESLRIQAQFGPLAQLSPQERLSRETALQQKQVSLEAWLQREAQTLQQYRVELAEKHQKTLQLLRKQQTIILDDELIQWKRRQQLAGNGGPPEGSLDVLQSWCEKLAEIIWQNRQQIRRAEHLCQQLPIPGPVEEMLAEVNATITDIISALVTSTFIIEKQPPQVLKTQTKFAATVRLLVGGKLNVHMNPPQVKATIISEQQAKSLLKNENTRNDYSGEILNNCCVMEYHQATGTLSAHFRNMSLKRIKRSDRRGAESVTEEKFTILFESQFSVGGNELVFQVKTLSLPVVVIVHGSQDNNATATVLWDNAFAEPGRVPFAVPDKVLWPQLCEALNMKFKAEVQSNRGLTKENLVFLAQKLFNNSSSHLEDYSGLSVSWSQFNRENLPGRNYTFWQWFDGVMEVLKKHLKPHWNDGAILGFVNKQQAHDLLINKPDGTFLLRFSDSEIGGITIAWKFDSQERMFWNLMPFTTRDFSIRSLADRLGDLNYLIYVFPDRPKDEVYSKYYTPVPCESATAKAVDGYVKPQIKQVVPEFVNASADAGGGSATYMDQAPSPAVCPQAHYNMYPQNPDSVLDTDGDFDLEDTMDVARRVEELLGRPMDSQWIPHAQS
As to the kind of experiment: Competitive fluorescence polarization (FP) assay, STAT5b SH2 domain. As to conditions: for Ki: Ki derived from IC50; for IC50: mean ± SD, n = 3. In kind it is binding. Here is the method:
(§1) Fluorescence polarization assays
(§2) Competitive fluorescence polarization assays, which measure the abilities of test compounds (dissolved in DMSO) to displace a fluorescent-labeled peptide from the SH2 domain of a STAT protein, were carried out essentially as described. Proteins were used at the following final concentrations: 23 nM or 28 nM for STAT4; between 56 nM and 91 nM for STAT1; 107 nM or 110 nM for STAT3; between 131 nM and 177 nM for STAT5a; between 62 nM and 85 nM for STAT5b; and 101 nM or 106 nM for STAT6. These concentrations represent the approximate […]
(§3) dissociation constant for peptide binding of the respective protein batches used in the assays.
(§4) The following peptides were used: 5-carboxyfluorescein-GpYLPQNID-OH for STAT4; 5-carboxyfluorescein-GpYDKPHVL for STAT1; 5-carboxyfluorescein-GpYLPQTV-NH2 for STAT3; 5-carboxyfluorescein-GpYLVLDKW for STAT5a/b, and 5-carboxyfluorescein- […]
(§5) Gp[…]-OH for STAT6. All peptides were used at a final concentration of 10 nM. The buffer consisted of 10 mM Tris (pH 8.0), 50 mM NaCl, 1 mM EDTA, 1 mM DTT, 0 .1 % Nonidet P-40 substitute, and 2 % DMSO. After incubation of protein and test compound for 1 h at room temperature, the fluorescent -labeled peptide was added. Samples were transferred to 384 - well microtiter plates and fluorescence polarization was read after an additional 60 min of incubation time. Measurements were performed in triplicate. Percent binding was calculated based on a logarithmic curve fit using OriginPro 8G software. IC 50 values were converted to Ki-values via the published equation[3] using the corresponding Excel spread sheet […]
(§6) https://websites.umich.edu/~shaomengwanglab/software/calc_ki/index.html .
(§7) Error bars represent standard deviations. Ligand efficiencies (LE) were calculated by the formula LE = -1,37 x log Ki / number of non-hydrogen atoms.[4] […]
(In general: In fluorescence polarisation assays a small probe gives low polarisation when free and higher when bound to something large.)

The target of another experiment is T2, STAT4 (Homo sapiens, UniProt Q14765).
T2 sequence (Q14765 1-748): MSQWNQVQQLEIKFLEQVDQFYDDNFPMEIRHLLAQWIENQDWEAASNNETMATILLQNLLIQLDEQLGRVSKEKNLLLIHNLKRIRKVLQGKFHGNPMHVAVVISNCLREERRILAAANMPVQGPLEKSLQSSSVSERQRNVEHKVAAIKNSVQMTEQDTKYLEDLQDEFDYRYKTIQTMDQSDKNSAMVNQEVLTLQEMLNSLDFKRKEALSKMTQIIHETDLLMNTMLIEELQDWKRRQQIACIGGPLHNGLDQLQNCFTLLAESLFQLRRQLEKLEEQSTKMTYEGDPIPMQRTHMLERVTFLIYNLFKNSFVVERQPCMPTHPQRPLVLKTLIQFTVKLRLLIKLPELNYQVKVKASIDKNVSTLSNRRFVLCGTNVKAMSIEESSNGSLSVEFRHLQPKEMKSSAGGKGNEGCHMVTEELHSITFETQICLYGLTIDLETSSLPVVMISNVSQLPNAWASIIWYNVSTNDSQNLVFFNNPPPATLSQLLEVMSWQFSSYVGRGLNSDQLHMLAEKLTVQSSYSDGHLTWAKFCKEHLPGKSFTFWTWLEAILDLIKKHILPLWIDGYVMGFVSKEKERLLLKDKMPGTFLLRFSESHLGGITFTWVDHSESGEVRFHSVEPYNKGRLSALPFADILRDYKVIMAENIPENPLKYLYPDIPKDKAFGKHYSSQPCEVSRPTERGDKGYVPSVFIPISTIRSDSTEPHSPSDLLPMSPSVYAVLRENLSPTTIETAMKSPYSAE
Put plainly: Competitive fluorescence polarization (FP) assay, STAT4 SH2 domain. The conditions noted are these: for Ki / IC50: FP assay, mean ± SD, n = 3; for Ki: tracer 5-carboxyfluorescein-GpYLPQNID-OH, Ki derived from IC50, read-out: STAT4 K i. In kind it is binding. Here is the method:
as §1, §2, §3, §4, §5, §6, §7

By IC50 is commonly meant the midpoint of a concentration-inhibition curve.

`O=P(O)(O)Oc1ccc(-c2ccccc2)cc1` [Compound 1, para‐biphenyl phosphate]: at STAT5b, the Ki stood at 47 ± 3 µM and the IC50 turned out to be 95 ± 6 µM. In addition, on STAT4, the Ki was 1.1 ± 0.1 µM and the half-maximal inhibitory concentration (IC50) was 2.3 ± 0.2 µM. On STAT4 (FP assays, Ki ratio), the “selectivity for STAT4 over the SH2 domain of STAT5a” value is around 20 fold; the “selectivity for STAT4 over the SH2 domain of STAT5b” value is around 40 fold; the “selectivity for STAT4 over the SH2 domains of STAT1, STAT3, and STAT6” value is 7–8 fold.

Regarding `O=P(O)(O)Oc1ccc(-c2ccc3ccccc3c2)cc1` [Compound 6g], the Ki at STAT5b is 53 ± 5 µM; at STAT4, 0.44 ± 0.09 µM. The IC50 worked out at 109 ± 11 µM at STAT5b and 0.95 ± 0.19 µM on STAT4.

Regarding `O=P(O)(O)Oc1ccc(-c2ccccc2)cc1F` [Compound 6h], on STAT5b, the Ki is 45 ± 7 µM and the IC50 came out at 91 ± 14 µM. At STAT4, the Ki was determined as 0.56 ± 0.08 µM and the IC50 was determined as 1.2 ± 0.2 µM.

`O=P(O)(O)Oc1ccc(-c2ccc3ccccc3c2)cc1F` [Compound 6m]: at STAT5b, the Ki was found to be 26 ± 2 µM and the IC50 came out at 52 ± 4 µM. In addition, at STAT4, the Ki was 0.35 ± 0.01 µM and the IC50 was 0.76 ± 0.01 µM. The “selectivity for STAT4 over other STAT proteins” value on STAT4 (FP assays) is 10–70 fold.

As to `O=P(O)(O)C(F)(F)c1ccc(-c2ccc3ccccc3c2)cc1F` [Compound 8a], on STAT5b, the Ki came out at 39 ± 1 µM and the IC50 came to 79 ± 3 µM. For the same molecule, at STAT4, the Ki stood at 4 ± 0.5 µM and the IC50 stood at 8.5 ± 1 µM.

Turning to `Cc1cc(-c2ccc(C(F)(F)P(=O)(O)O)c(F)c2)cs1` [Compound 8k], the Ki on STAT5b amounted to 64 ± 7 µM; on STAT4 it was 1.7 ± 0.2 µM. Further, the figures for the IC50 at STAT5b and on STAT4 were 130 ± 14 µM and 3.7 ± 0.4 µM, respectively. For the same molecule, the ligand efficiency at STAT4 (LE = -1,37 x log Ki / number of non-hydrogen atoms, STAT4 Ki) stood at 0.39 kcal/mol.
